The assay concerns H3K4me3 in ID8 cells. In words: immunoblot of H3K4me3, ID8. Type of assay: cell-based, mouse. The settings on record: ID8, 10 μM. How it is done: FIG. 2A-FIG. 2J show KDM5A inhibition suppresses tumor growth in vivo in an immune-competent mouse model of ovarian cancer. (FIG. 2A) Expression of Kdm5a, H3K4me3, and a loading control β-actin in doxycycline-inducible shKdm5a ID8 mouse EOC cells treated with or without 2 μg/mL of doxycycline. (FIG. 2B) ID8 cells were plated into 24 well plates and treated with 2 μg/mL of doxycycline the same day. Cells were incubated for 8 days. Relative cell viability was determined by colony formation assay. (FIG. 2C) Expression of Kdm5a, H3K4me3, and a loading control β-actin in ID8 cells treated with 10uM CPI-455 or vehicle control. (FIG. 2D) ID8 cells were plated into 24 well plates and incubated with 10 μM CPI-455 for 8 days with fresh drug-containing media every 3 days. Relative cell viability was determined by colony formation assay. (FIG. 2E) Ascites produced in C57BL/6 mice injected with doxycycline-inducible shKdm5a ID8 cells treated with control or doxycycline containing food. (FIG. 2F) Quantification of ascites volumes from FIG. 2E. […] (FIG. 21) Quantification of ascites volumes from FIG. 2H. […] Data represent mean±SEM of three biological repeats or 5 mice per group; P-value was calculated by using a two-tailed Student t test except in FIG. 2G and FIG. 2J by log rank tests.
Cells were trypsinized and washed two times with PBS. […] Protein concentration was measured by the BCA assay (Pierce, Cat #23225). […]
On the technique in general: In western blotting, separated proteins are transferred to a membrane and probed.

In the case of CPI-455, the H3K4me3 levels result is reported as “increase H3K4me3 levels”.

For the origin of these results see patent US20240139197A1, “INHIBITION OF KDM5A FOR PROMOTING ANTIGEN PRESENTATION, INCREASING CD8+ T CELL INFILTRATION AND BOOSTING ANTI-TUMOR IMMUNE RESPONSE” (The Wistar Institute of Anatomy and Biology, priority 2022, published 2024).
